pKi: −log10 of the molar value.
Legend:
[1] = Displacement of [125I]CGRP form CGRP receptor in human SK-N-MC cell membrane by competitive binding assay
[2] = Displacement of [125I]CGRP form CGRP receptor in human SK-N-MC cell membrane by competitive binding assay in the absence of MgCl2

## CC(C)C[C@H](NC(=O)CNC(=O)[C@H](C)NC(=O)[C@H](CC(C)C)NC(=O)[C@H](CCCN=C(N)N)NC(=O)[C@H](Cc1cnc[nH]1)NC(=O)[C@@H](NC(=O)[C@@H](NC(=O)[C@H](CS)NC(=O)[C@@H](NC(=O)[C@H](C)NC(=O)[C@@H](NC(=O)[C@H](CC(=O)O)NC(=O)[C@H](CS)NC(=O)[C@H](C)N)[C@@H](C)O)[C@@H](C)O)C(C)C)[C@@H](C)O)C(=O)N[C@@H](CC(C)C)C(=O)N[C@@H](CO)C(=O)N[C@@H](CCCN=C(N)N)C(=O)N[C@@H](CO)C(=O)NCC(=O)NCC(=O)N[C@H](C(=O)N[C@H](C(=O)N[C@@H](CCCCN)C(=O)N[C@@H](CC(N)=O)C(=O)N[C@@H](CC(N)=O)C(=O)N[C@@H](Cc1ccccc1)C(=O)N[C@H](C(=O)N1CCC[C@H]1C(=O)N[C@H](C(=O)N[C@@H](CC(N)=O)C(=O)N[C@H](C(=O)NCC(=O)N[C@@H](CO)C(=O)N[C@@H](CCCCN)C(=O)N[C@@H](C)C(=O)N[C@@H](Cc1ccccc1)C(N)=O)C(C)C)[C@@H](C)O)C(C)C)C(C)C)C(C)C
[1]
  pKi: 11.00
[2]
  pKi: 11.00
